Measured values published in US20240409585A1, “MACROCYCLIC IMMUNOMODULATORS” (priority 2021, published 2024).
Numbered stars: 1 amine (or outer) side, 2 acyl side, 3 side chain; on linkers, the order of the positions; unused ones are H or OH. Bridge positions count the residues as written; N and C are the ends. Square brackets hold non-standard residues; d marks the D form. Peptide text beside a SMILES is read from it. Phe(3-CF3) = N[C@@H](Cc1cccc(C(F)(F)F)c1)C(=O)O; Ala(morpholin-4-yl) = N[C@@H](CN1CCOCC1)C(=O)O; Phe(4-COOH) = N[C@@H](Cc1ccc(C(=O)O)cc1)C(=O)O; Bip = N[C@@H](Cc1ccc(-c2ccccc2)cc1)C(=O)O; Abu(3R-NH2) = C[C@@H](N)[C@H](N)C(=O)O; Glutaryl = O=C(CCCC(=O)[*:2])[*:1]; hPhe = N[C@@H](CCc1ccccc1)C(=O)O; 3Pal = N[C@@H](Cc1cccnc1)C(=O)O; Cha = N[C@@H](CC1CCCCC1)C(=O)O; NMeA = CN[C@@H](C)C(=O)O; Orn = NCCC[C@H](N)C(=O)O; Dab = NCC[C@H](N)C(=O)O; Dap = NC[C@H](N)C(=O)O

Tests used:
[1] = target: T1, Alexa fluor-647 labeled human PD-L1-Ig binding to Jurkat cell line over-expressing human PD-1 (Homo sapiens, UniProt Q15116); test: Jurkat-PD-1 Cell Binding High-Content Screening Assay (CBA): Method 3 (Alexa fluor-647 labeled PD-L1-Ig); details: Jurkat-PD-1 cells, Alexa fluor-647 labeled PD-L1-Ig 177 nM; nM; read-out: CBA Method 3
T1 construct: expressed in transfected cells; host or cells: Jurkat
In short: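 Jurkat cells over-expressing human PD-1 in RPMI/10% FCS were preincubated 2 h at 37 °C with compound, then exposed 1 h to Alexa fluor-647 labeled human PD-L1-Ig (177 nM final). Cells fixed in 4% paraformaldehyde with Hoechst 33342 and binding quantified by high-content imaging.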

[2] = target: T2, PD1-PDL1 protein-protein binding interaction [hPD1(25-167)-hIgG, hPD-L1 (19-239)-6xHis] (Homo sapiens, UniProt Q15116); test: HTRF Assay (TR-FRET); details: 5 nM hPD1-hIgG, 5 nM hPD-L1-6xHis, 24 hours at 25° C., head μM
T2 construct: hPD1(25-167)-hIgG, BMS
Experimental: A time-resolved fluorescence resonance energy transfer (TR-FRET) assay was employed to measure the inhibition of the PD1-PDL1 protein-protein binding interaction. The reaction buffer was prepared by mixing the HiBlock buffer and LANCE detection buffer (PerkinElmer, TRF1011F and CR97-100) at a 1:1 ratio. Assay reactions contained 5 nM human programmed cell death 1 [hPD1(25-167)-hIgG, BMS], 5 nM human programmed cell death ligand 1 [hPD-L1 (19-239)-6×His, BMS], in the presence of 1 nM LANCE Eu-W1024 Anti-Human IgG (Eu-anti hIgG, PerkinElmer, AD0074) and 20 nM SureLight Allophycocyanin-anti-6×His antibody (APC-anti-6×His, PerkinElmer, AD0059H). Test compounds were evaluated in a 10-point dose-response format with serial three-fold dilutions starting from a 2 uM top concentration. Reactions were carried out in a total volume of 10 uL in 384-well microtiter plates (Proxiplate white, PerkinElmer, 6008289). Plates were sealed and incubated for 24 hours at 25° C. After 24 hours, the TR-FRET signal was measured using a PerkinElmer EnVision multimode plate reader and the resulting ratiometric data set (signal at 665 nm/615 nm, multiplied by a factor of 10,000) was recorded. The concentration giving half-maximal inhibition (the IC50) was obtained by fitting the data to a four-parameter logistic equation using Graphpad Prism or Dotmatics.

T1 sequence (Q15116 25-288): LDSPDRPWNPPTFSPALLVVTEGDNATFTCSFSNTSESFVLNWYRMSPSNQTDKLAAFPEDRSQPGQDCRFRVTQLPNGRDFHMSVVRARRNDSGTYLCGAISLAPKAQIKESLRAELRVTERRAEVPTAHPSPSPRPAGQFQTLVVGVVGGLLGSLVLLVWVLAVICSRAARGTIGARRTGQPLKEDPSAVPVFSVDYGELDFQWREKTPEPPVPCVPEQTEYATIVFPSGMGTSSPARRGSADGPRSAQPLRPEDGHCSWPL
T2 sequence (Q15116 25-167): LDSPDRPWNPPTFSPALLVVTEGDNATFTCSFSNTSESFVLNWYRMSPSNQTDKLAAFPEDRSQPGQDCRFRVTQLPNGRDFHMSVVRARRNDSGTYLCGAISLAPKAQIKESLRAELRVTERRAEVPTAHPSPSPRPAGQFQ

Compound	IC50 [1] [nM]	IC50 [2] [µM]
CC(C)C[C@H]1NC(=O)[C@H](C)N(C)C(=O)[C@H](Cc2ccc(C(=O)O)cc2)NC(=O)[C@H](Cc2ccc(-c3ccccc3)cc2)NC(=O)[C@H](Cc2ccc(C(=O)O)cc2)NC(=O)[C@H](Cc2cccc(C(F)(F)F)c2)NC(=O)[C@H](CC(=O)O)NC(=O)[C@H](Cc2ccc(C(=O)O)cc2)NC(=O)[C@H](CC2CCCCC2)NC(=O)CSC[C@@H](C(=O)N[C@@H](CCN)C(N)=O)NC(=O)[C@H](CNC(=O)CCCC(=O)O)NC(=O)[C@H](C(C)C)NC(=O)[C@H](CC2CCCCC2)NC(=O)[C@H](CCN)NC1=O [Example 5229] ({CH2CO}-[Cha][Phe(4-COOH)]D[Phe(3-CF3)][Phe(4-COOH)][Bip][Phe(4-COOH)][NMeA][dL][Dab][Cha]V[Dap](Glutaryl)C[Dab]-NH2; thioether N-14)	3.8	0.04
CC(C)C[C@H]1NC(=O)[C@H](C)N(C)C(=O)[C@H](CCC(N)=O)NC(=O)[C@H](Cc2ccc(-c3ccccc3)cc2)NC(=O)[C@H](CCc2ccccc2)NC(=O)[C@H](Cc2cccc(C(F)(F)F)c2)NC(=O)[C@H](CC(=O)O)NC(=O)[C@H](Cc2cccnc2)NC(=O)[C@H](CN2CCOCC2)NC(=O)CSC[C@@H](C(=O)N[C@@H](CCN)C(N)=O)NC(=O)[C@H](CCCN)NC(=O)[C@H](C(C)C)NC(=O)[C@H](CC2CCCCC2)NC(=O)[C@H](CCN)NC1=O [Example 5243] ({CH2CO}-[Ala(morpholin-4-yl)][3Pal]D[Phe(3-CF3)][hPhe][Bip]Q[NMeA][dL][Dab][Cha]V[Orn]C[Dab]-NH2; thioether N-14)	2.2	0.03
CC(C)C[C@H]1NC(=O)[C@H](C)N(C)C(=O)[C@H](CCC(N)=O)NC(=O)[C@H](Cc2ccc(-c3ccccc3)cc2)NC(=O)[C@H](CCc2ccccc2)NC(=O)[C@H](Cc2cccc(C(F)(F)F)c2)NC(=O)[C@H](CC(=O)O)NC(=O)[C@H](Cc2ccc(O)cc2)NC(=O)[C@H]([C@@H](C)N)NC(=O)CSC[C@@H](C(=O)N[C@@H](CCN)C(N)=O)NC(=O)[C@H](CCCN)NC(=O)[C@H](C(C)C)NC(=O)[C@H](CC2CCCCC2)NC(=O)[C@H](CCN)NC1=O [Example 5236] ({CH2CO}-[Abu(3R-NH2)]YD[Phe(3-CF3)][hPhe][Bip]Q[NMeA][dL][Dab][Cha]V[Orn]C[Dab]-NH2; thioether N-14)	1.1	0.1
